Assay results: US10174035B2, “6-morpholinyl-2-pyrazolyl-9H-purine derivatives and their use as PI3K inhibitors” (Daiichi Sankyo Company, Limited, priority 2015, dated 2019)

What follows are molecules tested against recombinant PI3K δ enzyme (Homo sapiens (Human), UniProt O00329) (assay: In vitro enzyme assay (Kinase-Glo luminescent kinase assay), PI3Kδ).
Type: biochemical
Protocol: The Kinase-Glo luminescent kinase assay kit (from Promega) was used to measure kinase activity. In this assay, amount of ATP remaining in solution following a kinase reaction is measured. The effect of compounds on PI3Kδ inhibition was carried out by adding 2.29 μg/ml of recombinant PI3K δ enzyme (Proteros, Germany) to reaction mixture containing assay buffer (50 mM HEPES, pH 7.4, 50 mM NaCl, 0.05% CHAPS) supplemented with 10 mM MgCl2, 5 mM DTT, 60 μM Phosphatidyl inositol bisphosphate (PIP2) and 10 μM ATP in the absence or presence of different concentrations of the compounds in a final volume of 15 μl/well, in a 384 well plate. The reaction mixture was incubated for 2 hours at room temperature. At the end of incubation period the equal volume of Kinase-Glo plus (Promega, V3772), was added per well and the luminescence was measured after incubating for 10 minutes at room temperature in dark. Results were calculated by measuring the luminescence units of test samples to blanks containing no enzyme.
The compounds of the present invention were tested for their selectivity for PI3Kδ over PI3Kα, PI3Kβ and PI3Kγ following the above assay using specific recombinant enzymes (Proteros, Germany) for each kinase. Assay condition of kinase assay (PI3Kα, PI3Kβ, PI3Kγ and PI3Kδ) was as follows. Enzyme: 2.29 μg/mL; ATP: 10 μM; PIP2 substrate: 60 μM and Reaction Time: 2 hours.

recombinant PI3K δ enzyme, sequence (O00329 whole entry, species assumed): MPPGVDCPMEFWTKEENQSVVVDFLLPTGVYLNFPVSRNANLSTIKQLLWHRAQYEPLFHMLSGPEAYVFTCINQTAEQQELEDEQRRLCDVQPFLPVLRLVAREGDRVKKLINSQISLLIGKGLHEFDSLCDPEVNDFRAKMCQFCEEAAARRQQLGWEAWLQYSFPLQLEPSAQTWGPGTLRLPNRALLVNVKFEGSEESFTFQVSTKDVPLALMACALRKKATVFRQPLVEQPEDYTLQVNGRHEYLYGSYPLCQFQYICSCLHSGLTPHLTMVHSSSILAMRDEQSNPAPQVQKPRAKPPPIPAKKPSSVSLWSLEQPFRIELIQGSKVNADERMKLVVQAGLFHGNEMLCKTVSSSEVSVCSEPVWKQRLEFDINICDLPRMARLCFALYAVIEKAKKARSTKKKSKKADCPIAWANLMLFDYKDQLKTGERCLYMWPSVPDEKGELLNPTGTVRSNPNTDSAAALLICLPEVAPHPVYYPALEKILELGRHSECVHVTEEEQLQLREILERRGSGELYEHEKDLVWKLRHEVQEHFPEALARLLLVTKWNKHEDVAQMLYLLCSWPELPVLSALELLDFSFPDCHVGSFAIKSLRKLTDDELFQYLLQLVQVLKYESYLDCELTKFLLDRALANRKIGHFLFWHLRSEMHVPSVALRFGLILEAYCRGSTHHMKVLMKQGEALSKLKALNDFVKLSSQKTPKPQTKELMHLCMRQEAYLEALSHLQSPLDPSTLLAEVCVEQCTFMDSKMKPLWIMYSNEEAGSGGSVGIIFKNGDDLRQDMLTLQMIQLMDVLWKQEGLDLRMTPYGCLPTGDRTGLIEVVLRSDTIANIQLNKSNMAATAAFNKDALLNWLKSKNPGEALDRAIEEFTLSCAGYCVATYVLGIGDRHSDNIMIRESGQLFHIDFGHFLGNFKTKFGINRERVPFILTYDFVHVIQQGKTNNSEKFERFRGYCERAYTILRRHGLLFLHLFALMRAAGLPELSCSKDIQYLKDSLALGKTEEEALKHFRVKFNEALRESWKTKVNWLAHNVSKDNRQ
recombinant PI3K δ enzyme, sequence (P27986 whole entry partner, species assumed): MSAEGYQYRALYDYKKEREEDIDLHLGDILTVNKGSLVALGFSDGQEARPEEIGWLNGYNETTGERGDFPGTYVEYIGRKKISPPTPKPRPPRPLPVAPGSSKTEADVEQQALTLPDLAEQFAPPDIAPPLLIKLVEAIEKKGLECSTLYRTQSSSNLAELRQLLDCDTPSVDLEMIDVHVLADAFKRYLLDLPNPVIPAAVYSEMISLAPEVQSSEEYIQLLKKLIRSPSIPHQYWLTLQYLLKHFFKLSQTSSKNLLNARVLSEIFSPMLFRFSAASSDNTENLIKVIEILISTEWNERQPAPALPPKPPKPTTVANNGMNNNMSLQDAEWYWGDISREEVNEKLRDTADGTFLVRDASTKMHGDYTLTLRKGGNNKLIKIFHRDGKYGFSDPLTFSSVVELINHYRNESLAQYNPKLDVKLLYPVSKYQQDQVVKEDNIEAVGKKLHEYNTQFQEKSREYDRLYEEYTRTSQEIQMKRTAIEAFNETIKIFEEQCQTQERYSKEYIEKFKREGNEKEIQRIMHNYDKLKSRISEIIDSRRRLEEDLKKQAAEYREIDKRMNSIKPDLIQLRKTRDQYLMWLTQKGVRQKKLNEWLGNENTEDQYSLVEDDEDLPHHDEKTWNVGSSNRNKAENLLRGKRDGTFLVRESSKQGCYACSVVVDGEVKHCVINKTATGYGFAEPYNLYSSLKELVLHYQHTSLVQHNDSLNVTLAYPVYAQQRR

SMILES	IC50 [nM]
Cn1cc(-c2nc(N3CCOCC3)c3nc(C(=O)N4CCNC(=O)C4)[nH]c3n2)cn1 [compound 31, 4-{[2-(1-Methyl-1H-pyrazol-4-yl)-6-(morpholin-4-yl)-9H-purin-8-yl]carbonyl}piperazin-2-one]	465
Cn1cc(-c2nc(N3CCOCC3)c3nc(C(=O)N4CCN(c5ccccc5)CC4)[nH]c3n2)cn1 [compound 32, [2-(1-Methyl-1H-pyrazol-4-yl)-6-(morpholin-4-yl)-9H-purin-8-yl](4-phenylpiperazin-1-yl)methanone]	56
Cn1cc(-c2nc(N3CCOCC3)c3nc(C(=O)NC4CCCCC4)[nH]c3n2)cn1 [compound 33, N-cyclohexyl-2-(1-methyl-1H-pyrazol-4-yl)-6-(morpholin-4-yl)-9H-purine-8-carboxamide]	366
Cn1cc(-c2nc(N3CCOCC3)c3nc(C(=O)N4CCN(S(C)(=O)=O)CC4)[nH]c3n2)cn1 [compound 34, [2-(1-Methyl-1H-pyrazol-4-yl)-6-(morpholin-4-yl)-9H-purin-8-yl][4-(methylsulfonyl)piperazin-1-yl]methanone]	305
Cn1cc(-c2nc(N3CCOCC3)c3nc(C(=O)N4CCC(c5ccccc5)CC4)[nH]c3n2)cn1 [compound 35, [2-(1-Methyl-1H-pyrazol-4-yl)-6-(morpholin-4-yl)-9H-purin-8-yl](4-phenylpiperidin-1-yl)methanone]	17
Cn1cc(-c2nc(N3CCOCC3)c3nc(C(=O)NCC4CCCCC4)[nH]c3n2)cn1 [compound 36, N-(Cyclohexylmethyl)-2-(1-methyl-1H-pyrazol-4-yl)-6-(morpholin-4-yl)-9H-purine-8-carboxamide]	15
CC(=O)N[C@H]1CCN(C(=O)c2nc3c(N4CCOCC4)nc(-c4cnn(C)c4)nc3[nH]2)C1 [compound 37, N-[(3S)-1-{[2-(1-methyl-1H-pyrazol-4-yl)-6-(morpholin-4-yl)-9H-purin-8-yl]carbonyl}pyrrolidin-3-yl]acetamide]	31
Cn1cc(-c2nc(N3CCOCC3)c3nc(C(=O)N4CC[C@@H](NS(C)(=O)=O)C4)[nH]c3n2)cn1 [compound 38, N-[(3R)-1-{[2-(1-methyl-1H-pyrazol-4-yl)-6-(morpholin-4-yl)-9H-purin-8-yl]carbonyl}pyrrolidin-3-yl]methanesulfonamide]	20
CC(=O)N1CCN(C(=O)c2nc3c(N4CCOCC4)nc(-c4cnn(C)c4)nc3[nH]2)CC1 [compound 39, 1-(4-{[2-(1-Methyl-1H-pyrazol-4-yl)-6-(morpholin-4-yl)-9H-purin-8-yl]carbonyl}piperazin-1-yl)ethanone]	26
Cc1c(-c2nc(N3CCOCC3)c3nc(C(=O)N4CCC(N5CCOCC5)CC4)[nH]c3n2)cnn1C [compound 40, [2-(1,5-Dimethyl-1H-pyrazol-4-yl)-6-(morpholin-4-yl)-9H-purin-8-yl][4-(morpholin-4-yl)piperidin-1-yl]methanone]	28

More lines, now with the values ahead:

IC50 [nM]	SMILES
57	Cn1cc(-c2nc(N3CCOCC3)c3nc(C(=O)N4CCN(C(=O)OC(C)(C)C)CC4)[nH]c3n2)cn1 [compound 43, Tert-butyl 4-{[2-(1-methyl-1H-pyrazol-4-yl)-6-(morpholin-4-yl)-9H-purin-8-yl]carbonyl}piperazine-1-carboxylate]
76	CN(C)[C@H]1CCN(C(=O)c2nc3c(N4CCOCC4)nc(-c4cnn(C)c4)nc3[nH]2)C1 [compound 44, [(3S)-3-(Dimethylamino)pyrrolidin-1-yl][2-(1-methyl-1H-pyrazol-4-yl)-6-(morpholin-4-yl)-9H-purin-8-yl]methanone]
48	CCOC(=O)CN1CCN(C(=O)c2nc3c(N4CCOCC4)nc(-c4cnn(C)c4)nc3[nH]2)CC1 [compound 45, Ethyl (4-{[2-(1-methyl-1H-pyrazol-4-yl)-6-(morpholin-4-yl)-9H-purin-8-yl]carbonyl}piperazin-1-yl)acetate]
69	CN1CCN(C(=O)c2nc3c(N4CCOCC4)nc(-c4cnn(C)c4)nc3[nH]2)CC1 [compound 46, (4-Methylpiperazin-1-yl)[2-(1-methyl-1H-pyrazol-4-yl)-6-(morpholin-4-yl)-9H-purin-8-yl]methanone]
139	CN1CCC(NC(=O)c2nc3c(N4CCOCC4)nc(-c4cnn(C)c4)nc3[nH]2)CC1 [compound 47, N-(1-Methylpiperidin-4-yl)-2-(1-methyl-1H-pyrazol-4-yl)-6-(morpholin-4-yl)-9H-purine-8-carboxamide]
76	CN(C)C(=O)c1nc2c(N3CCOCC3)nc(-c3cnn(C)c3)nc2[nH]1 [compound 48, N,N-Dimethyl-2-(1-methyl-1H-pyrazol-4-yl)-6-(morpholin-4-yl)-9H-purine-8-carboxamide]
62	Cn1cc(-c2nc(N3CCOCC3)c3nc(C(=O)NC4CCN(Cc5ccccc5)CC4)[nH]c3n2)cn1 [compound 49, N-(1-Benzylpiperidin-4-yl)-2-(1-methyl-1H-pyrazol-4-yl)-6-(morpholin-4-yl)-9H-purine-8-carboxamide]
205	Cn1cc(-c2nc(N3CCOCC3)c3nc(C(=O)N4CCC(CC(=O)O)CC4)[nH]c3n2)cn1 [compound 50, (1-{[2-(1-Methyl-1H-pyrazol-4-yl)-6-(morpholin-4-yl)-9H-purin-8-yl]carbonyl}piperidin-4-yl)acetic acid]
56	CCOC(=O)CC1CCN(C(=O)c2nc3c(N4CCOCC4)nc(-c4cnn(C)c4)nc3[nH]2)CC1 [compound 51, Ethyl (1-{[2-(1-methyl-1H-pyrazol-4-yl)-6-(morpholin-4-yl)-9H-purin-8-yl]carbonyl}piperidin-4-yl)acetate]
231	COCCNC(=O)c1nc2c(N3CCOCC3)nc(-c3cnn(C)c3)nc2[nH]1 [compound 52, N-(2-Methoxyethyl)-2-(1-methyl-1H-pyrazol-4-yl)-6-(morpholin-4-yl)-9H-purine-8-carboxamide]
88	Cn1cc(-c2nc(N3CCOCC3)c3nc(C(=O)N4CCCCC4)[nH]c3n2)cn1 [compound 53, [2-(1-Methyl-1H-pyrazol-4-yl)-6-(morpholin-4-yl)-9H-purin-8-yl](piperidin-1-yl)methanone]
68	CN(C)C1CCN(C(=O)c2nc3c(N4CCOCC4)nc(-c4cnn(C)c4)nc3[nH]2)CC1 [compound 57, [4-(Dimethylamino)piperidin-1-yl][2-(1-methyl-1H-pyrazol-4-yl)-6-(morpholin-4-yl)-9H-purin-8-yl]methanone]
206	CCN(CCN1CCOCC1)C(=O)c1nc2c(N3CCOCC3)nc(-c3cnn(C)c3)nc2[nH]1 [compound 59, N-ethyl-2-(1-methyl-1H-pyrazol-4-yl)-6-(morpholin-4-yl)-N-[2-(morpholin-4-yl)ethyl]-9H-purine-8-carboxamide]
159	CN(CCN1CCOCC1)C(=O)c1nc2c(N3CCOCC3)nc(-c3cnn(C)c3)nc2[nH]1 [compound 60, N-methyl-2-(1-methyl-1H-pyrazol-4-yl)-6-(morpholin-4-yl)-N-[2-(morpholin-4-yl)ethyl]-9H-purine-8-carboxamide]
61	Cn1cc(-c2nc(N3CCOCC3)c3nc(C(=O)N4CC[C@H](O)C4)[nH]c3n2)cn1 [compound 62, [(3S)-3-Hydroxypyrrolidin-1-yl][2-(1-methyl-1H-pyrazol-4-yl)-6-(morpholin-4-yl)-9H-purin-8-yl]methanone]
